Measured values taken from patent publication US12122821B2, “Regulation of glucose metabolism using anti-CGRP antibodies” (H. LUNDBECK A/S, priority 2013, dated 2024).
“Also recorded” adds a separate entry of the source.

Legend:
Normal rats = assay: Blood glucose, plasma insulin and HOMA-IR before clamp in normal rats (Example 1); assay type: in vivo, rat; conditions: vs vehicle
Description: The antibody used in this example consisted of the light and heavy polypeptide chains of SEQ ID NOs 132 and 134.
Blood glucose (BG) was measured between 07:30 and 08:00 (just before the light off) am from the tip of the tail with glucometer and a blood collection (on EDTA) was performed just after to measure plasma insulin. The table below describes the conditions:
Plasma samples were kept at −80° C. until insulin measurement (using ELISA method).
Vehicle and Ab14 were administered by i.v. route 48 h before the T0 of clamp procedure (at 02:00 pm two days before the clamp).
The rats were fasted 6 hours before the start of the clamp (at ˜8 h, just after the blood collection).

HFD rats [1] = assay: Fasting blood glucose, plasma insulin, C-peptide and HOMA-IR in HFD rats (Example 2); assay type: in vivo, rat; conditions: vs HFD vehicle
Description: After 6 weeks of HFD rats were randomized to treatment groups according to their glucose intolerance (AUC calculation during an oral glucose tolerance test (OGTT)) and their HOMA-IR (insulin resistance index).
(§1) Body weight and food consumption were measured 3 times per week until 10 days of treatment. HOMA-IR was measured on day 10 and 15. A 2-step clamp (5 mU/kg/min and then 15 mU/kg/min insulin) was performed on day 15 or 16. Glucose Turnover (GTO) was assessed using ^3H-glucose tracer infusion during the clamp procedure.
Ab14 (10, 30, 100 mg/kg) and the vehicle were weekly administered via i.v. route (via the caudal vein, under isoflurane anaesthesia), in the morning, on day 1 and day 8 of treatment.
Before the start of the treatment (the day of OGTT) and on day 10 of treatment, all rats were fasted from 08:00 am. At 01:30 pm, blood was collected from the from the tip tail (40 μL on EDTA). Blood glucose (using glucometers) and plasma insulin (ELISA method) were measured.
Plasma insulin and C peptide levels were measured just before the infusion starts (˜T-30 min.), at the end of the steady state of step 1 (T2 h) and step 2 (T3.5 h). For that, blood collection was performed from the tip of the tail (˜100 μL, on EDTA).

HFD rats [2] = assay: 2-step hyperinsulinemic-euglycemic clamp in HFD rats (Example 2); assay type: in vivo, rat; conditions: metformin 200 mg/kg/day, vs HFD vehicle
Description: Six-week HFD fed rats were treated for 2 weeks with Ab14, and a 2-step hyperinsulinemic euglycemic clamp was performed to assess insulin sensitivity. A physiological dose of insulin was used during the first step and a pharmacological dose of insulin was used during the second step to assess the effects of […] insulin sensitivity, respectively, under these two conditions.
as §1
On day 15 or 16, the 2-step hyperinsulinemic-euglycemic clamp was performed using ^3H-glucose as a tracer (except in the normal chow group), and 5 mU/kg/min insulin infusion from 02:00 pm (T0) to 04:00 pm (T+2 h), followed by 15 mU/kg/min insulin infusion from 04:00 pm to 05:30 pm (t+3.5 h). A glucose solution was infused in parallel and the infusion rate was adjusted to reach the steady state (100±10 mg/dL). Blood glucose was measured from the tip of the tail using glucometers every 10 minutes. Blood was collected (10 μL) regularly from the tip of the tail during the steady states of each step.
The following parameters were assessed: Glucose infusion rate (in all groups); Whole body glucose utilization rate (except in the normal chow group); Hepatic glucose production rate (except in the normal chow group); Whole body glycogen and glycolytic rates (except in the normal chow group).

[3] = test system: Zucker diabetic fatty (ZDF) rat; assay: Fasting blood glucose, plasma insulin, C-peptide and HOMA-IR in ZDF rats (Example 3); assay type: in vivo; conditions: for increase of plasma C-peptide levels / increase of plasma insulin levels: vs vehicle ZDF; for increase of plasma C-peptide levels: NS; for increase of plasma insulin levels: ns
Description: For the groups treated with AB14, the antibody was administered once weekly via the caudal vein (i.v., 5 mL/kg) on days 1, 8, 15, and 22 at two different doses 20 mg/kg/week (groups 3 and 7) or 60 mg/kg/week (groups 4 and 8). All other groups were treated once weekly with vehicle 1 (i.v., 5 mL/kg). The intravenous treatments were performed in the morning on day 1, 8, 15, and 22 while under isoflurane anaesthesia. The volume of administration was individually adapted according to the most recent body weight.
All other groups were treated daily with vehicle 2 (p.o., 5 mL/kg) for 28 days. The most recent body weight was used to calculate the average volume of administration in each group.
A fasting (6 hours on day 0 from 8:00 am to 02:00 pm, and overnight on day 12, 19 and 26 from ˜6:00 pm to ˜8:00 am) was performed before each blood collection. Blood was collected at ˜2:00 pm, from the tip of the tail, on day 0 (before screening, 150 μL, potassium EDTA), and at ˜8:00 am prior to dosing on days 12 (110 μL, potassium EDTA), 19 (150 μL, potassium EDTA) and 26, (110 μL, potassium EDTA).
Fasting blood glucose (glucometers) was measured on days 0, 12, 19, and 26. Fasting plasma insulin, peptide-C (ELISA method), free fatty acids, triglycerides, total cholesterol (colorimetric method), and HDL-cholesterol (phosphotungstate precipitation, colorimetric method) were measured on day 0, and prior to dosing on days 12, 19, and day 26. Non HDL-cholesterol was calculated as total cholesterol—HDL-cholesterol. Fructosamine was measured on days 0, 19 and 28. HbA1c (DCA 2000) was measured on days 0 and 28.

[4] = day 10, Ab14 10, 30, 100 mg/kg/week, metformin 200 mg/kg/day
[5] = day 12, metformin 200 mg/kg/day
[6] = day 19, metformin 200 mg/kg/day
[7] = day 26, metformin 200 mg/kg/day

Question: Which results are given for CN(C)C(=N)N=C(N)N [metformin, reference compound]?
Answer: blood glucose in fed conditions (Normal rats; fed, 42 h after Ab14 100 mg/kg i.v., 18 h after metformin 500 mg/kg p.o.): did not affect; also recorded: not affected; decrease of plasma insulin level in fed condition (Normal rats; fed, 42 h after Ab14 100 mg/kg i.v., 18 h after metformin 500 mg/kg p.o., not significant): 18%; decrease of blood glucose in 6 hours fasting condition, just before clamp (Normal rats; metformin 500 mg/kg p.o.): 17%; decrease of HOMA-IR (HFD rats [1]; [4]): 36%; decrease of fasting plasma insulin (HFD rats [1]; [4]): 37%; fasting blood glucose (HFD rats [1]; [4]): no effect; decrease of plasma C-peptide level (HFD rats [1]; day 15, metformin 200 mg/kg/day): 13%; decrease of fasting plasma insulin (HFD rats [1]; day 15, metformin 200 mg/kg/day, ns): 11%; GIR (plateau) during the first clamp step (HFD rats [2]; 5 mU/kg/min insulin, Ab14 treated groups (10, 30, 100 mg/kg)): increasing effect upon GIR that was comparatively less in magnitude; also recorded: no effect; increase of mean GIR, first step (HFD rats [2]; 5 mU/kg/min insulin, ns): 11%; HGP, second step (HFD rats [2]; 15 mU/kg/min insulin): completely inhibited; increase of mean GIR, second step (HFD rats [2]; 15 mU/kg/min insulin): 27%; increase of plasma C-peptide levels [3, 5]: 23%; increase of plasma insulin levels [3, 5]: 79%; increase of plasma C-peptide levels [3, 6]: 21%; increase of plasma insulin levels [3, 6]: 55%; fasting blood glucose, effect ([3]; day 19 and 26, metformin 200 mg/kg): not observed; increase of plasma C-peptide levels [3, 7]: 9%; increase of plasma insulin levels [3, 7]: 48%; HOMA-IR ([3]; days 12, 19 and 26, metformin 200 mg/kg/day alone or in combination with AB14, vs vehicle ZDF): increase of HOMA-IR
